Values of other authors in paper PMC6344135, “Analgesic effects of the cathepsin K inhibitor L-006235 in the monosodium iodoacetate model of osteoarthritis pain” (Pain Reports, 2018).

Columns and labels:
[1] = system: rabbit ACLT and dog partial medial meniscectomy models; set-up: method as in PMID 29523155; details: once daily for 7 weeks (rabbit), 28 days (dog)
surgical model of OA = details: pain not analysed
MIA model of OA pain = details: preventative and reversal

Structure (SMILES): C#C[C@@H]1CN(C(=O)[C@H](CC(C)C)NC(=O)c2ccc(-c3nc(N4CCN(C)CC4)sc3F)cc2)[C@@H]2C(=O)CO[C@H]12 [MIV-711]
- joint pathology [1]: prophylactic and therapeutic effects

Structure (SMILES): NCCCC(O)(P(=O)(O)O)P(=O)(O)O [alendronate]
- bone resorption and cartilage (surgical model of OA): inhibited bone resorption and had chondroprotective effects

Structure (SMILES): O=P(O)(O)C(O)(Cn1ccnc1)P(=O)(O)O [zoledronate]
- pain behaviour in MIA rats (MIA model of OA pain): Significant preventative, and reversal, effects
